US20260027116A1, “Methods of Treating Chronic Graft-Versus-Host Disease Following Allogeneic Hematopoietic Stem Cell Transplantation” (Kadmon Corporation, LLC, priority 2022, published 2026)

Experiments:
[1] = clinical drug interaction studies, effects of other drugs on belumosudil; assay type: in vivo, human; settings: healthy subjects
[2] = molecular target: T1, CYP1A2 (Homo sapiens, UniProt P05177); assay: enzyme inhibition in vitro; assay type: in vitro ADME
T1 sequence (P05177 1-516): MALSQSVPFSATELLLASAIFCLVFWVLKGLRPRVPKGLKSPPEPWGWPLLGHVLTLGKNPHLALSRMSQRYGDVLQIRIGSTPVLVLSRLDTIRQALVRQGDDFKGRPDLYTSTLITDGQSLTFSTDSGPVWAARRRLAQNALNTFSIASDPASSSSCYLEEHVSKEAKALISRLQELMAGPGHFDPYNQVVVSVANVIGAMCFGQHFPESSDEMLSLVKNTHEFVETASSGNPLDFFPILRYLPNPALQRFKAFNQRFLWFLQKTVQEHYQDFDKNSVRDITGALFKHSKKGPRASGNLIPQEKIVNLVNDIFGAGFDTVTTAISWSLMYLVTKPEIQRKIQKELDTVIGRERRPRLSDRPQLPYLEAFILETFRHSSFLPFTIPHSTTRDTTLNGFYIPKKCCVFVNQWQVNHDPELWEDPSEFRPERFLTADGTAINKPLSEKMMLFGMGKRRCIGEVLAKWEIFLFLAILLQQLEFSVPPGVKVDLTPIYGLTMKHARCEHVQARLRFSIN

## CC(C)NC(=O)COc1cccc(-c2nc(Nc3ccc4[nH]ncc4c3)c3ccccc3n2)c1 [Belumosudil, 2-{3-[4-(1H-indazol-5-ylamino)-2-quinazolinyl]phenoxy}-N-(propan-2-yl) acetamide]
[1]
  decrease of belumosudil AUC with omeprazole: 47%
  decrease of belumosudil AUC with rabeprazole: 80%
  decrease of belumosudil AUC with rifampin: 72%
  decrease of belumosudil Cmax with omeprazole: 68%
  decrease of belumosudil Cmax with rabeprazole: 87%
  decrease of belumosudil Cmax with rifampin: 59%
  effect of itraconazole on belumosudil exposure: no clinically meaningful effect
[2]
  inhibition of CYP1A2: inhibitor
